The results in this text go back to PubChem BioAssay (NCI).

Some test systems named below: MDA-N; DLD-1 colon; DMS 273 small cell lung; HOP-18 NSCLC; KM20L2 colon; LXFL 529 NSCLC; M19-MEL melanoma; RXF-631 renal; XF 498 CNS.
What all share (experiment): NCI anticancer screen, dose series, 48 h

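Protocol summary: plate cells (96-well), add compound at 5 concentrations, incubate 48 h, interpolate endpoints linearly. GI50 is the concentration that inhibits growth by half. TGI is the concentration that stops growth completely.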

With `O=C(O)/C(Cc1ccnc2ccccc12)=N\O`, in the assay with MDA-N, the TGI was over 100 µM.

On to `Cc1cccc(C(=O)O)c1C(=O)c1cccc2ccccc12`, for which the TGI in the assay with DLD-1 colon, in the assay on DMS 273 small cell lung, in the assay on HOP-18 NSCLC, in the assay with KM20L2 colon, in the assay on LXFL 529 NSCLC and in the assay on M19-MEL melanoma was over 100 µM throughout.

Turning to `Cc1ccc(NC(=O)C(=O)CC(=O)c2c(C)n([O-])c3ccccc3[n+]2=O)cc1C`, the TGI with DMS 273 small cell lung, in the assay on HOP-18 NSCLC, with KM20L2 colon, in the assay with LXFL 529 NSCLC and in the assay on M19-MEL melanoma was over 100 µM in each case.

With `CCCCCCCC1(c2ccc(N)cc2)CCC(=O)NC1=O` (centres undefined), the TGI with DLD-1 colon is over 100 µM; in the assay with DMS 273 small cell lung it was 73.8 µM; in the assay with KM20L2 colon, over 100 µM; with LXFL 529 NSCLC, over 100 µM; in the assay on M19-MEL melanoma it was over 100 µM; with RXF-631 renal, over 100 µM. This compound also showed a TGI with XF 498 CNS of 75.2 µM.

For the compound `CC(C)c1cccc(C(C)C)c1N1C(=O)C(=O)C(c2nc3ccccc3o2)C(=O)C1=O`, the TGI with DLD-1 colon, in the assay on DMS 273 small cell lung, with KM20L2 colon, in the assay with LXFL 529 NSCLC, in the assay with M19-MEL melanoma and in the assay on RXF-631 renal was over 100 µM in each case. This compound returned a TGI in the assay with XF 498 CNS of 89.9 µM.

In turn, `Cc1ccc([N+](=O)[O-])c2c(NCCNC(=O)c3cc(C(=O)NCCNc4ccnc5c(C)ccc([N+](=O)[O-])c45)n(C)n3)ccnc12` gave a TGI in the assay with MDA-N of over 58 µM.

Compound `O=C(O)/C(Cc1cn[nH]n1)=N\O` had a TGI with MDA-N of over 100 µM.

Take `Cc1ccc(C)c(N2C(=O)C(=O)C(c3nc4ccccc4o3)C(=O)C2=O)c1`: the TGI with DLD-1 colon was 65.6 µM; in the assay with DMS 273 small cell lung, over 100 µM; in the assay on HOP-18 NSCLC, over 100 µM; in the assay with KM20L2 colon, over 100 µM; in the assay on LXFL 529 NSCLC, over 100 µM; in the assay on M19-MEL melanoma it was over 100 µM. In the assay on RXF-631 renal, this compound returned a TGI of over 100 µM.

On to `COCCOc1cc(C)cc(/C=C(C)/C=C/C2=C(C)CCCC2(C)C)n1`, for which the TGI in the assay on DLD-1 colon, in the assay with DMS 273 small cell lung, in the assay with HOP-18 NSCLC, in the assay on LXFL 529 NSCLC, in the assay with M19-MEL melanoma and in the assay with RXF-631 renal was over 100 µM in each case. The TGI in the assay on XF 498 CNS is over 100 µM.

Take `N#Cc1ccccc1NC(=O)C(=O)C1NC(=S)NC1=O` (centres undefined): the TGI with DLD-1 colon, in the assay on HOP-18 NSCLC, in the assay on KM20L2 colon, in the assay on LXFL 529 NSCLC, in the assay with M19-MEL melanoma and in the assay on XF 498 CNS was over 100 µM in each case.

`Cc1ccc2nc(NC(=O)C(=O)C(C#N)c3ccc(Cl)cc3)sc2c1` (centres undefined): the TGI in the assay with DMS 273 small cell lung, with HOP-18 NSCLC, in the assay with KM20L2 colon, in the assay on LXFL 529 NSCLC, in the assay on M19-MEL melanoma and in the assay on XF 498 CNS was over 50 µM throughout.

The compound `CN1Cc2ccccc2/C=C\c2ccccc21` registered a TGI in the assay on MDA-N of over 100 µM.

In the case of `C/C(CN1C(=O)c2ccccc2C1=O)=N\NS(=O)(=O)c1cccc(C(=O)O)c1`, the TGI in the assay on DLD-1 colon, in the assay with DMS 273 small cell lung, with HOP-18 NSCLC, in the assay on KM20L2 colon, with LXFL 529 NSCLC and with M19-MEL melanoma was over 100 µM each time. Besides, the TGI with RXF-631 renal and in the assay with XF 498 CNS was over 100 µM each time.

For the compound `CCN(CC)CC1CCCCN1CC(=O)N1CC(C)C(=O)Nc2ccccc21` (centres undefined), the TGI in the assay with DLD-1 colon, with DMS 273 small cell lung, with HOP-18 NSCLC, in the assay with KM20L2 colon, in the assay with LXFL 529 NSCLC and in the assay with M19-MEL melanoma was over 100 µM throughout.

`CCCCCC(=O)Nc1nc2nc[nH]c2c(=O)[nH]1`: the TGI with DLD-1 colon, in the assay on DMS 273 small cell lung, with HOP-18 NSCLC, with KM20L2 colon, in the assay on LXFL 529 NSCLC and in the assay on M19-MEL melanoma was over 100 µM in each case. This compound displayed a TGI with XF 498 CNS of over 100 µM.

Turning to `CCC[CH2][Sn]([CH2]CCC)([S]C#N)[S]C#N`, the GI50 with DLD-1 colon was 0.999 µM; with DMS 273 small cell lung, 1.63 µM; with HOP-18 NSCLC, 1.21 µM; with KM20L2 colon, 1.78 µM; in the assay with LXFL 529 NSCLC, 0.122 µM; in the assay with M19-MEL melanoma it was 0.909 µM. The results for the GI50 in the assay with RXF-631 renal and in the assay on XF 498 CNS were 0.329 µM and 0.779 µM, respectively. In addition, the TGI with DLD-1 colon is 2.23 µM; with DMS 273 small cell lung, 4.21 µM; in the assay on HOP-18 NSCLC it was 2.44 µM; in the assay on KM20L2 colon, 3.6 µM; in the assay on LXFL 529 NSCLC, 0.749 µM; in the assay on M19-MEL melanoma, 5.04 µM. Moreover, the results for the TGI in the assay with RXF-631 renal and with XF 498 CNS were 1.43 µM and 1.98 µM, respectively.

`S=C1Cc2c(-c3ccc(Br)cc3)cc(-c3ccccc3)nc2-c2ccccc2N1` had a TGI with MDA-N of 9.03 µM.

Turning to `CCOC(=O)C(Cc1ccc(N(CCCl)CCCl)cc1)NC(=O)C(Cc1ccccc1)NC=O` (centres undefined), the TGI in the assay on MDA-N was determined as 0.338 µM.

Consider `COC1CC(O)C(OC(=O)c2ccccc2)C(C)O1` (centres undefined), for which the TGI in the assay with DMS 273 small cell lung, with HOP-18 NSCLC, with KM20L2 colon, in the assay on M19-MEL melanoma, with RXF-631 renal and in the assay with XF 498 CNS was over 100 µM each time.

For the compound `N#CC(C(=O)CCCC(=O)Nc1ccc(Cl)cc1Cl)c1ccccc1` (centres undefined), the TGI in the assay with DLD-1 colon, in the assay on DMS 273 small cell lung, in the assay on HOP-18 NSCLC, in the assay on KM20L2 colon, with M19-MEL melanoma and in the assay on RXF-631 renal was over 100 µM each time.

Regarding `CCOC(=O)c1cc(-c2ccc(-c3cc(C(=O)OCC)c(C#N)c(N)c3C#N)cc2)c(C#N)c(N)c1C#N`, the TGI in the assay on DLD-1 colon, with DMS 273 small cell lung, in the assay on HOP-18 NSCLC, with KM20L2 colon, in the assay on LXFL 529 NSCLC and with M19-MEL melanoma was over 100 µM in each case. The TGI in the assay with RXF-631 renal and in the assay on XF 498 CNS was over 100 µM each time.
